Positions count from the first letter of the chain named. Structures can show the parent of a compound that is named as a salt.
Tests used:
[1] = biological target: T1, MRGPRX2-WT (wild-type MRGPRX2 receptor) (Homo sapiens, UniProt Q96LB1); assay: Primary HTS, Ca2+ mobilization (fluorescence ratio, B-score) in HEK293-Gα15 cells stably expressing wild-type MRGPRX2; type: cell-based; details: 10 μM compound
T1 construct: expressed in transfected cells
T1 sequence (Q96LB1 1-330): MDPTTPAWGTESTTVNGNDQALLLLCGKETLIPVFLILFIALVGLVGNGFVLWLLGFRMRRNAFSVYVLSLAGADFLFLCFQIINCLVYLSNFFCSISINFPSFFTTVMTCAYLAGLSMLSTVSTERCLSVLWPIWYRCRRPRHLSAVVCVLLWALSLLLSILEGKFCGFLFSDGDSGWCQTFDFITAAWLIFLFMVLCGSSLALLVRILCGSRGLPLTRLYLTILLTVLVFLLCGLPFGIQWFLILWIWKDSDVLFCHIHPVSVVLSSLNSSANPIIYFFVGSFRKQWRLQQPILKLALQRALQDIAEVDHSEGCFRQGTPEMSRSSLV
Protocol: (§1) We performed an experimental HTS on the Johns Hopkins Drug Library, which includes 1,811 (57%) FDA-approved drugs among 3,456 total compounds (28% of all known drugs worldwide) ([15]). We performed the HTS at the Johns Hopkins University ChemBioCORE Facility and employed HEK293-Gα15 cell lines that stably expressed MRGPRX2 protein.
(§2) We utilized 10 μM compounds (each compound was tested in triplicate) and calculated the compound effect using the signal-to-background fluorescence ratio (see Supplementary Methods).
(§3) In the HTS, we determined MRGPRX2 activation by a Ca^2+ mobilization assay that recorded a fluorescence change by utilizing a Functional Drug Screening System (FDSS 6000; Hamamatsu); we evaluated the compound effect using the calculated fluorescence ratio. We further applied the B-score normalization, which provided robust corrections for variation in fluorescence ratio ([22]).
(§4) We performed an experimental high-throughput screening (HTS) on the Johns Hopkins Drug Library (JHDL), which includes 1,811 (57%) FDA-approved drugs among 3,456 total compounds (28% of all known drugs worldwide). The remaining compounds in JHDL are catalogued in one or more of the resources below: British Approved Names (BAN); Dénominations Communes Françaises (DCF); International Nonproprietary Names (INN); Japanese Adopted Names (JAN); MI (Merck Index); National Formulary drug name (NF); and United States Accepted Names (USAN). The JHU drug library is stocked in 96 well plates at 10 mM in 100% DMSO and stored at -80 °C. We used a final concentration of 10 uM for each compound and DMSO concentration of 0.1% (tested in triplicate). […] We evaluated compound effect using the calculated fluorescence ratio. We further calculated B-scores, which are a relative potency score similar to Z scores in that they are the ratio of an adjusted raw value in the numerator to a measure of variability in the denominator.

[2] = biological target: T2, MRGPRX2-MUT (MRGPRX2 N62S mutation) (Homo sapiens, UniProt Q96LB1, N62S); assay: Primary HTS, Ca2+ mobilization (fluorescence ratio, B-score) in HEK293-Gα15 cells stably expressing the MRGPRX2 N62S mutation; type: cell-based; details: for B-scores (MUT): 10 μM compound, MRGPRX2-MUT (N62S) cells; for Change of B-scores (%): 10 μM
T2 construct: expressed in transfected cells
T2 sequence (Q96LB1 1-330 N62S): T1 sequence (Q96LB1 1-330) with N62S
Protocol: as §1, §2, §3, §4

[3] = MRGPRX2-MUT in comparison to MRGPRX2-WT cells, Supplementary Table 1
[4] = MRGPRX2-MUT in comparison to MRGPRX2-WT cells, Table 1
[5] = MRGPRX2-MUT versus MRGPRX2-WT cells, Supplementary Table 2
[6] = Supplementary Table 2, listed as Isoprenaline

B-scores (WT) ([1]; Supplementary Table 1)	B-scores (WT) ([1]; Table 1)	B-scores (MUT) ([2]; Supplementary Table 1)	B-scores (MUT) ([2]; Table 1)	Change of B-scores (%) [2, 3]	Change of B-scores (%) [2, 4]	B-scores (WT) ([1]; Supplementary Table 2)	B-scores (MUT) ([2]; Supplementary Table 2)	Change of B-scores (%) [2, 5]	SMILES	also measured
–	–	–	–	–	–	7.16	0.2	-97.19%	COc1ccc(CCN(C)CCCC(C#N)(c2cc(OC)c(OC)c(OC)c2)C(C)C)cc1OC (stereo not shown) [Gallopamil]	–
–	–	–	–	–	–	11.57	39.57	241.86%	CC(=O)[C@]1(O)Cc2c(O)c3c(c(O)c2[C@@H](O[C@H]2C[C@H](N)[C@H](O)[C@H](C)O2)C1)C(=O)c1ccccc1C3=O [Idarubicin hydrochloride]	–
32.17	32.17	16.90	16.90	-47.47%	-47.47%	32.17	16.9	-47.47%	CN(C)CCCN1c2ccccc2CCc2ccccc21 [Imipramine Hydrochloride]	–
26.61	–	10.27	–	-61.42%	–	–	–	–	CC(C)CCCC(C)NC(C)C (stereo not shown) [Iproheptine]	–
29.54	–	0.60	–	-97.97%	–	–	–	–	CCC(NC(C)C)C(O)c1ccc(O)c(O)c1 (stereo not shown) [Isoetharine Mesylate]	–
20.95	–	–	–	-100.26%	–	20.95	-0.05	-100.26%	CC(C)NCC(O)c1ccc(O)c(O)c1 (stereo not shown) [Isoproterenol Hydrochloride]	B-scores (WT) ([1]; Supplementary Table 1, listed as Isoprenaline hydrochloride): 21.82; Change of B-scores (%) ([2]; MRGPRX2-MUT in comparison to MRGPRX2-WT cells, Supplementary Table 1, listed as Isoprenaline hydrochloride): -100.25%
19.12	–	6.75	–	-64.69%	–	–	–	–	CC(C)NCC(O)c1ccc(O)c(O)c1 (stereo not shown) [Isoproterenol]	B-scores (WT) [1, 6]: 19.12; B-scores (MUT) [2, 6]: 6.75; Change of B-scores (%) ([2]; MRGPRX2-MUT versus MRGPRX2-WT cells, Supplementary Table 2, listed as Isoprenaline): -64.69%
23.14	23.14	0.81	0.81	-96.52%	-96.52%	–	–	–	CN1CCC(=C2c3ccccc3CC(=O)c3sccc32)CC1 [Ketotifen Fumarate]	–
20.12	20.12	1.38	1.38	-93.13%	-93.13%	–	–	–	CN1CCC(=C2c3ccccc3CC(=O)c3sccc32)CC1 [Ketotifen]	–
–	–	–	–	–	–	12.18	1.63	-86.62%	CC(C)(C)NC[C@H](O)c1ccc(O)c(CO)c1 [Levalbuterol]	–
39.73	39.73	0.74	-0.74	-101.85%	-101.85%	–	–	–	C[C@H]1COc2c(N3CCN(C)CC3)c(F)cc3c(=O)c(C(=O)O)cn1c23 [Levofloxacin]	–
21.95	21.95	–	-3.30	-115.04%	-115.04%	–	–	–	CCOC(=O)N1CCC(=C2c3ccc(Cl)cc3CCc3cccnc32)CC1 [Loratadine]	–
27.71	27.71	3.82	3.82	-86.20%	-86.20%	27.71	3.82	-86.2%	Cc1ccc(NC(=O)c2ccc(CN3CCN(C)CC3)cc2)cc1Nc1nc(-c2cccnc2)cs1 [Masitinib]	–
25.34	25.34	1.93	1.93	-92.39%	-92.39%	–	–	–	CN1CCc2c(c3ccccc3n2Cc2ccccc2)C1.CN1CCc2c(c3ccccc3n2Cc2ccccc2)C1.O=S(=O)(O)c1cccc2c(S(=O)(=O)O)cccc12 [Mebhydrolin Naphthalenesulfonate]	–
26.34	–	–	–	-99.82%	–	–	–	–	CC12CC3CC(C)(C1)CC(N)(C3)C2 [Memantine Hydrochloride]	–
20.54	–	2.41	–	-88.28%	–	20.54	2.41	-88.28%	CC(C)NCC(O)c1cc(O)cc(O)c1 (stereo not shown) [Metaproterenol]	–
26.04	–	37.31	–	43.29%	–	–	–	–	CC(=O)OC(C)C[N+](C)(C)C (stereo not shown) [Methacholine Chloride]	–
23.69	–	1.32	–	-94.42%	–	–	–	–	CC(=O)Oc1cc(C(C)C)c(OCCN(C)C)cc1C [Moxisylyte Hydrochloride]	–
28.83	–	7.54	–	-73.85%	–	–	–	–	NC[C@H](O)c1ccc(O)c(O)c1 [Norepinephrine]	–
28.07	28.07	–	0.05	-99.81%	-99.81%	28.07	0.05	-99.81%	CCn1cc(C(=O)O)c(=O)c2cc(F)c(N3CCNCC3)cc21 [Norfloxacin]	–

SMILES	B-scores (WT) ([1]; Supplementary Table 1)	B-scores (WT) ([1]; Table 1)	B-scores (MUT) ([2]; Supplementary Table 1)	B-scores (MUT) ([2]; Table 1)	Change of B-scores (%) [2, 3]	Change of B-scores (%) [2, 4]	B-scores (WT) ([1]; Supplementary Table 2)	B-scores (MUT) ([2]; Supplementary Table 2)	Change of B-scores (%) [2, 5]	also measured
CNCCC(Oc1ccc(C(F)(F)F)cc1)c1ccccc1 (stereo not shown) [Fluoxetine]	36.30	36.30	7.14	7.14	-80.32%	-80.32%	–	–	–	–
COc1ccc2c3c1O[C@H]1C[C@@H](O)C=C[C@@]31CCN(C)C2 [Galantamine Hydrobromide]	19.90	–	1.33	–	-93.34%	–	–	–	–	–
COc1ccc2c3c1O[C@H]1C[C@@H](O)C=C[C@@]31CCN(C)C2 [Galantamine]	40.50	–	1.25	–	-96.90%	–	–	–	–	–
CN1[C@@H]2CC(OC(=O)[C@H](CO)c3ccccc3)C[C@H]1[C@@H]1O[C@@H]12.Cl (stereo partly shown) [Hyoscine hydrochloride]	–	–	–	–	–	–	11.2	0.57	-94.9%	–
CN1[C@@H]2CC[C@H]1CC(OC(=O)[C@H](CO)c1ccccc1)C2.Cl (stereo partly shown) [Hyoscyamine Hydrochloride]	–	–	–	–	–	–	11.54	0.69	-94.01%	–
CN1[C@@H]2CC[C@H]1C[C@@H](OC(=O)[C@H](CO)c1ccccc1)C2 [Hyoscyamine]	–	–	–	–	–	–	17.72	0.65	-96.31%	–
CNCCC=C1c2ccccc2CCc2ccccc21 [Nortriptyline Hydrochloride]	–	–	–	–	–	–	16.29	2.78	-82.96%	–
NCCC(O)(P(=O)([O-])O)P(=O)([O-])O.[Na+].[Na+] [Pamidronate disodium]	30.08	–	18.72	–	-37.79%	–	–	–	–	–

Reference: PMC9635925, “Biological screening of a unique drug library targeting MRGPRX2” (Frontiers in Immunology, 2022)
